These results are taken from patent US8993756B2 (Merck Sharp & Dohme Corp., priority 2011, dated 2015).

In one assay the target is JAK2 (Homo sapiens (Human), UniProt O60674). The experiment in a line: Jak Biochemical HTRF Assay (JAK2). The following applies: recombinant GST-tagged catalytic domain, [ATP] 8.5 μM.
A further assay deals with JAK3 (Homo sapiens (Human), UniProt P52333). The experiment in a line: Jak Biochemical HTRF Assay (JAK3). The following applies: recombinant GST-tagged catalytic domain, [ATP] 2.9 μM.
Sequence of JAK3 (P52333 822-1111): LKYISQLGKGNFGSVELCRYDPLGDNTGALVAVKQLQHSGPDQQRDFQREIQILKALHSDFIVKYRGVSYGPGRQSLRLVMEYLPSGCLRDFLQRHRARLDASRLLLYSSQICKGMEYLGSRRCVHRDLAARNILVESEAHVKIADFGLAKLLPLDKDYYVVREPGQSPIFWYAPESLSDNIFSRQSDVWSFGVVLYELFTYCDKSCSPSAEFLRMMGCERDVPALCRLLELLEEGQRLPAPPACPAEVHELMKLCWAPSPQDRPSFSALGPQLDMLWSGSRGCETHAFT

Each structure is given as a SMILES string. A value given as a limit tells only on which side of the number the result lay.

Sequence of JAK2 (O60674 849-1124): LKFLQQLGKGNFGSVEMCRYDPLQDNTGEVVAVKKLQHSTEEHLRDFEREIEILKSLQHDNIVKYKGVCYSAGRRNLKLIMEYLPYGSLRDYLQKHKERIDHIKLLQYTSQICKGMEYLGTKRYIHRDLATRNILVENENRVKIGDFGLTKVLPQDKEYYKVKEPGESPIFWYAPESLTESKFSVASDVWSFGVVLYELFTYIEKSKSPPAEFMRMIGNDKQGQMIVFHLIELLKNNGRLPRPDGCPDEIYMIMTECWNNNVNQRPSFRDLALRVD

For the compound `CCOC(=O)c1c[nH]c2ncnc(-c3ccc4c(c3)CN(C(=O)OC(C)(C)C)C4=O)c12` [Example 1-77, ethyl 4-[2-(tert-butoxycarbonyl)-1-oxo-2,3-dihydro-1H-isoindol-5-yl]-7H-pyrrolo[2,3-d]pyrimidine-5-carboxylate], the values for the IC50 on JAK2 (given as range class) and at JAK3 (given as range class) were > 500 nM and 10 to 500 nM, respectively.

In the case of `CCOC(=O)c1c[nH]c2ncnc(-c3ccc4c(c3)CN(C(=O)OC(C)(C)C)CC4)c12` [Example 1-78, tert-butyl 7-[5-(ethoxycarbonyl)-7H-pyrrolo[2,3-d]pyrimidin-4-yl]-3,4-dihydroisoquinoline-2(1H)-carboxylate], the IC50 is > 500 nM on JAK2 (given as range class) and 10 to 500 nM on JAK3 (given as range class).

For `CCOC(=O)c1c[nH]c2ncnc(-c3ccc4c(c3)CN(C(=O)OC(C)(C)C)CCO4)c12` [Example 1-79, tent-butyl 7-[5-(ethoxycarbonyl)-7H-pyrrolo[2,3-d]pyrimidin-4-yl]-2,3-dihydro-1,4-benzoxazepine-4(5H)-carboxylate], the IC50 at JAK2 (given as range class) was > 500 nM; on JAK3 (given as range class), 10 to 500 nM.

As for `CCOC(=O)c1c[nH]c2ncnc(-c3ccc(N)cc3)c12` [Example 1-80, ethyl 4-(4-aminophenyl)-7H-pyrrolo[2,3-d]pyrimidine-5-carboxylate], the figures for the IC50 at JAK2 and at JAK3 were 53 nM and 2.3 nM, respectively.

As for `CCOC(=O)c1c[nH]c2ncnc(-c3ccn[nH]3)c12` [Example 1-81, ethyl 4-(1H-pyrazol-5-yl)-7H-pyrrolo[2,3-d]pyrimidine-5-carboxylate], the IC50 on JAK2 (given as range class) was > 500 nM; on JAK3 (given as range class) it was 10 to 500 nM.

On to `CCOC(=O)c1c[nH]c2ncnc(-c3ccc4scnc4c3)c12` [Example 1-82, ethyl 4-(1,3-benzothiazol-5-yl)-7H-pyrrolo[2,3-d]pyrimidine-5-carboxylate], for which the half-inhibitory concentration (IC50) at JAK2 (given as range class) and on JAK3 (given as range class) was 10 to 500 nM throughout.

On to `CCOC(=O)c1c[nH]c2ncnc(-c3ccc4cc[nH]c4c3)c12` [Example 1-83, ethyl 4-(1H-indol-6-yl)-7H-pyrrolo[2,3-d]pyrimidine-5-carboxylate], for which the concentration for half-maximal inhibition (IC50) on JAK2 was 137 nM; at JAK3, 9.7 nM.

For the compound `CCOC(=O)c1c[nH]c2ncnc(-c3cnc4[nH]ccc4c3)c12` [Example 1-84, ethyl 4-(1H-pyrrolo[2,3-b]pyridin-5-yl)-7H-pyrrolo[2,3-d]pyrimidine-5-carboxylate], the concentration for half-maximal inhibition (IC50) at JAK2 (given as range class) and on JAK3 (given as range class) was 10 to 500 nM each time.

Turning to `CCOC(=O)c1c[nH]c2ncnc(-c3ccc(N4CCN(C)CC4)cc3)c12` [Example 1-85, ethyl 4-[4-(4-methylpiperazin-1-yl)phenyl]-7H-pyrrolo[2,3-d]pyrimidine-5-carboxylate], the IC50 at JAK2 (given as range class) is > 500 nM; at JAK3 (given as range class) it was 10 to 500 nM.

For `CCOC(=O)c1c[nH]c2ncnc(C3=CCC(O)CC3)c12` (centres unmarked) [Example 1-86, ethyl 4-(4-hydroxycyclohex-1-en-1-yl)-7H-pyrrolo[2,3-d]pyrimidine-5-carboxylate], the half-maximal inhibitory concentration (IC50) on JAK2 (given as range class) and on JAK3 (given as range class) was 10 to 500 nM each time.

With `CCOC(=O)c1c[nH]c2ncnc(-c3ccc(N4CCN(C)CC4)nc3)c12` [Example 1-87, ethyl 4-[6-(4-methylpiperazin-1-yl)pyridin-3-yl]-7H-pyrrolo[2,3-d]pyrimidine-5-carboxylate], the half-maximal inhibitory concentration (IC50) was > 500 nM on JAK2 (given as range class) and 10 to 500 nM at JAK3 (given as range class).

Turning to `CCOC(=O)c1c[nH]c2ncnc(C3=CCCOC3)c12` [Example 1-88, ethyl 4-(5,6-dihydro-2H-pyran-3-yl)-7H-pyrrolo[2,3-d]pyrimidine-5-carboxylate], the half-inhibitory concentration (IC50) on JAK2 (given as range class) was > 500 nM; at JAK3 (given as range class), 10 to 500 nM.

On to `CCOC(=O)c1c[nH]c2ncnc(-c3ccnc(OC)c3)c12` [Example 1-89, ethyl 4-(2-methoxypyridin-4-yl)-7H-pyrrolo[2,3-d]pyrimidine-5-carboxylate], for which the values for the half-maximal inhibitory concentration (IC50) at JAK2 (given as range class) and on JAK3 (given as range class) were > 500 nM and 10 to 500 nM, respectively.

In the case of `CCOC(=O)c1c[nH]c2ncnc(C3=CCC(C#N)CC3)c12` (centres unmarked) [Example 1-90, ethyl 4-(4-cyanocyclohex-1-en-1-yl)-7H-pyrrolo[2,3-d]pyrimidine-5-carboxylate], the concentration for half-maximal inhibition (IC50) at JAK2 (given as range class) and at JAK3 (given as range class) was 10 to 500 nM in each case.

As to `CCOC(=O)c1c[nH]c2ncnc(-c3cnc(OC)nc3)c12` [Example 1-91, ethyl 4-(2-methoxypyrimidin-5-yl)-7H-pyrrolo[2,3-d]pyrimidine-5-carboxylate], the IC50 at JAK2 (given as range class) is > 500 nM; on JAK3 (given as range class), 10 to 500 nM.

`CCOC(=O)c1c[nH]c2ncnc(-c3cnn(CCS(C)(=O)=O)c3)c12` [Example 1-92, ethyl 4-{1-[2-(methylsulfonyl)ethyl]-1H-pyrazol-4-yl}-7H-pyrrolo[2,3-d]pyrimidine-5-carboxylate]: the figures for the half-maximal inhibitory concentration (IC50) on JAK2 (given as range class) and on JAK3 (given as range class) were > 500 nM and 10 to 500 nM, respectively.

As to `CCOC(=O)c1c[nH]c2ncnc(-c3ccc(OC)nc3)c12` [Example 1-93, ethyl 4-(6-methoxypyridin-3-yl)-7H-pyrrolo[2,3-d]pyrimidine-5-carboxylate], the half-maximal inhibitory concentration (IC50) on JAK2 (given as range class) is > 500 nM; on JAK3 (given as range class), 10 to 500 nM.

Consider `CCOC(=O)c1c[nH]c2ncnc(-c3ccc(-n4cccn4)cc3)c12` [Example 1-94, ethyl 4-[4-(1H-pyrazol-1-yl)phenyl]-7H-pyrrolo[2,3-d]pyrimidine-5-carboxylate], for which the concentration for half-maximal inhibition (IC50) is 121 nM on JAK2 and 7.5 nM at JAK3.

`CCOC(=O)c1c[nH]c2ncnc(-c3cccc(N4CCS(=O)(=O)CC4)c3)c12` [Example 1-95, ethyl 4-[3-(1,1-dioxidothiomorpholin-4-yl)phenyl]-7H-pyrrolo[2,3-d]pyrimidine-5-carboxylate]: the half-inhibitory concentration (IC50) is > 500 nM on JAK2 (given as range class) and 10 to 500 nM on JAK3 (given as range class).

For `CCOC(=O)c1c[nH]c2ncnc(-c3cccc(CN4CCOCC4)c3)c12` [Example 1-96, ethyl 4-[3-(morpholin-4-ylmethyl)phenyl]-7H-pyrrolo[2,3-d]pyrimidine-5-carboxylate], the IC50 on JAK2 (given as range class) is > 500 nM; at JAK3 (given as range class), 10 to 500 nM.

For `CCOC(=O)c1c[nH]c2ncnc(-c3ccc(N4CCS(=O)(=O)CC4)cc3)c12` [Example 1-97, ethyl 4-[4-(1,1-dioxidothiomorpholin-4-yl)phenyl]-7H-pyrrolo[2,3-d]pyrimidine-5-carboxylate], the IC50 amounted to 348 nM at JAK2 and 6.8 nM on JAK3.

For `CCOC(=O)c1c[nH]c2ncnc(C3=CCOCC3)c12` [Example 1-98, ethyl 4-(3,6-dihydro-2H-pyran-4-yl)-7H-pyrrolo[2,3-d]pyrimidine-5-carboxylate], the 50% inhibitory concentration (IC50) at JAK2 (given as range class) was > 500 nM; at JAK3 (given as range class), 10 to 500 nM.

Regarding `CCOC(=O)c1c[nH]c2ncnc(-c3cnn(CCOC)c3)c12` [Example 1-99, ethyl 4-[1-(2-methoxyethyl)-1H-pyrazol-4-yl]-7H-pyrrolo[2,3-d]pyrimidine-5-carboxylate], the concentration for half-maximal inhibition (IC50) on JAK2 (given as range class) was > 500 nM; at JAK3 (given as range class) it was 10 to 500 nM.

On to `CCOC(=O)c1c[nH]c2ncnc(-c3ccc(C(=O)NC4CCOC4)cc3)c12` (centres unmarked) [Example 1-100, ethyl 4-[4-(tetrahydrofuran-3-ylcarbamoyl)phenyl]-7H-pyrrolo[2,3-d]pyrimidine-5-carboxylate], for which the half-maximal inhibitory concentration (IC50) was > 500 nM at JAK2 (given as range class) and 10 to 500 nM at JAK3 (given as range class).

On to `CCOC(=O)c1c[nH]c2ncnc(-c3cccc(N(C)S(C)(=O)=O)c3)c12` [Example 1-102, ethyl 4-{3-[methyl(methylsulfonyl)amino]phenyl}-7H-pyrrolo[2,3-d]pyrimidine-5-carboxylate], for which the half-inhibitory concentration (IC50) on JAK2 (given as range class) is > 500 nM; on JAK3 (given as range class), 10 to 500 nM.

Turning to `CCOC(=O)c1c[nH]c2ncnc(-c3cccc(-n4cccn4)c3)c12` [Example 1-103, ethyl 4-[3-(1H-pyrazol-1-yl)phenyl]-7H-pyrrolo[2,3-d]pyrimidine-5-carboxylate], the figures for the 50% inhibitory concentration (IC50) on JAK2 (given as range class) and on JAK3 (given as range class) were > 500 nM and 10 to 500 nM, respectively.

Turning to `CCOC(=O)c1c[nH]c2ncnc(-c3ccc(CC#N)nc3)c12` [Example 1-104, ethyl 4-[6-(cyanomethyl)pyridin-3-yl]-7H-pyrrolo[2,3-d]pyrimidine-5-carboxylate], the IC50 was > 500 nM on JAK2 (given as range class) and 10 to 500 nM on JAK3 (given as range class).

For `CCOC(=O)c1c[nH]c2ncnc(-c3cccc(C(C)(C)O)c3)c12` [Example 1-105, ethyl 4-[3-(1-hydroxy-1-methylethyl)phenyl]-7H-pyrrolo[2,3-d]pyrimidine-5-carboxylate], the half-inhibitory concentration (IC50) on JAK2 (given as range class) is > 500 nM; at JAK3 (given as range class), 10 to 500 nM.

`CCOC(=O)c1c[nH]c2ncnc(-c3cncc(CO)c3)c12` [Example 1-106, ethyl 4-[5-(hydroxymethyl)pyridin-3-yl]-7H-pyrrolo[2,3-d]pyrimidine-5-carboxylate]: the results for the half-maximal inhibitory concentration (IC50) at JAK2 (given as range class) and on JAK3 (given as range class) were > 500 nM and 10 to 500 nM, respectively.

For `CCOC(=O)c1c[nH]c2ncnc(-c3ccc(C(C)(C)O)cc3)c12` [Example 1-107, ethyl 4-[4-(1-hydroxy-1-methylethyl)phenyl]-7H-pyrrolo[2,3-d]pyrimidine-5-carboxylate], the IC50 at JAK2 (given as range class) and at JAK3 (given as range class) was 10 to 500 nM throughout.

For `CCCOC(=O)c1c[nH]c2ncnc(-c3ccc4cn(C)nc4c3)c12` [Example 2-1, Propyl 4-(2-methyl-2H-indazol-6-yl)-7H-pyrrolo[2,3-d]pyrimidine-5-carboxylate], the IC50 at JAK2 stood at 153 nM; at JAK3, 9 nM.

As to `C=CCOC(=O)c1c[nH]c2ncnc(-c3ccc4cn(C)nc4c3)c12` [Example 2-2, Prop-2-en-1-yl 4-(2-methyl-2H-indazol-6-yl)-7H-pyrrolo[2,3-d]pyrimidine-5-carboxylate], the concentration for half-maximal inhibition (IC50) on JAK2 (given as range class) and on JAK3 (given as range class) was 10 to 500 nM each time.

As for `CCOC(=O)c1c[nH]c2ncnc(-c3cccc(NCC(F)(F)F)c3)c12` [Example 3-1, Ethyl 4-{3-[(2,2,2-trifluoroethyl)amino]phenyl}-7H-pyrrolo[2,3-d]pyrimidine-5-carboxylate], the concentration for half-maximal inhibition (IC50) at JAK2 (given as range class) is > 500 nM; at JAK3 (given as range class) it was 10 to 500 nM.

Turning to `CCOC(=O)c1c[nH]c2ncnc(-c3ccc(C)c(NCC(F)(F)F)c3)c12` [Example 3-2, ethyl 4-{4-methyl-3-[(2,2,2-trifluoroethyl)amino]phenyl}-7H-pyrrolo[2,3-d]pyrimidine-5-carboxylate], the concentration for half-maximal inhibition (IC50) on JAK2 (given as range class) is > 500 nM; at JAK3 (given as range class), 10 to 500 nM.
